According to ChEMBL document CHEMBL4425168, “Dehydrozingerone Inspired Styryl Hydrazine Thiazole Hybrids as Promising Class of Antimycobacterial Agents” (ACS Med Chem Lett, 2016):
pIC50: −log10 of the molar value. Converted amounts (≈) assume the structure as drawn.

Experiments:
[1] = system: Mycobacterium tuberculosis; test: Antitubercular activity against Mycobacterium tuberculosis H37Rv by radiometric assay; type: functional
[2] = system: Mycobacterium tuberculosis; test: Antitubercular activity against Mycobacterium tuberculosis H37Rv assessed as bacterial growth inhibition under aerobic conditions after 5 days by dual read-out fluorescence assay; type: functional, organism-based; details: 120 h
[3] = system: Mycobacterium tuberculosis; test: Antitubercular activity against Mycobacterium tuberculosis H37Rv assessed as bacterial growth inhibition in aerobic conditions by dual read out fluorescence assay; type: functional
[4] = system: Mycobacterium tuberculosis; test: Antitubercular activity against Mycobacterium tuberculosis H37Rv after 7 days by broth macrodilution assay; type: functional; details: 168 h
[5] = system: Mycobacterium tuberculosis; test: Antitubercular activity against Mycobacterium tuberculosis H37Rv INH-R2 ATCC 35822 after 5 days; type: functional, organism-based
[6] = system: Mycobacterium tuberculosis; test: Antitubercular activity against Mycobacterium tuberculosis H37Rv RIF-R2 ATCC 35828 after 5 days; type: functional, organism-based; details: H37Rv RIF-R2 ATCC 35828, 120 h
[7] = system: Mycobacteroides abscessus; test: Antibacterial activity against Mycobacterium abscessus assessed as bacterial growth inhibition after 3 days by MABA method; type: functional; details: 72 h
Mycobacterium avium = test: Antibacterial activity against Mycobacterium avium assessed as reduction in bacterial metabolic activity after 5 days by Alamar blue assay; type: functional; details: 120 h
THP-1 = test: Cytotoxicity in differentiated human THP1 cells assessed as reduction in cell viability after 3 days by CellTiter-Glo assay; type: cell-based; details: THP-1, 72 h
[8] = system: Mycobacterium tuberculosis; test: Bactericidal activity against replicating Mycobacterium tuberculosis H37Rv assessed as reduction in colony forming units incubated for 21 days; type: functional; details: 504 h
[9] = system: Mycobacterium tuberculosis; test: Antitubercular activity against oxygen-deprived Mycobacterium tuberculosis H37Rv assessed as bacterial growth inhibition preincubated for 10 days under anaerobic conditions followed by incubation under aerobic conditions for 28 hrs by LOR assay; type: functional, organism-based
[10] = system: Mycobacterium tuberculosis; test: Antitubercular activity against oxygen-deprived Mycobacterium tuberculosis H37Rv assessed as bacterial growth inhibition incubated for 5 days under aerobic conditions by LOR assay; type: functional, organism-based; details: 120 h
[11] = system: Mycobacterium tuberculosis; test: Antitubercular activity against Mycobacterium tuberculosis H37Rv expressing luxABCDE infected in differentiated human THP1 cells assessed as reduction in bacteria infected cells after 72 hrs by luminescence assay; type: functional, organism-based; details: THP-1, 72 h
[12] = system: Mycobacterium tuberculosis; test: Antitubercular activity against Mycobacterium tuberculosis H37Rv by microplate Alamar blue assay; type: functional
[13] = Mycobacterium tuberculosis, H37Rv INH-R2 ATCC 35822, 120 h

Structure (SMILES): O=[N+]([O-])c1ccc2nc(-c3ccccc3-c3nnc(/C=C/c4ccccc4)o3)[nH]c2c1
- MIC [1]: 12.5 µg/mL (≈ 30.5 µM)

Structure (SMILES): COc1ccc(/C=C/C(C)=N/Nc2nc(-c3cc(Br)ccc3O)cs2)cc1OC
- MIC [2]: 1.5 to 200 µM (≈ 0.712 to 94.9 µg/mL)

Structure (SMILES): COc1ccc(-c2csc(N/N=C/c3ccc4c(c3)c3ccccc3n4C)n2)cc1OC
- MIC [3]: 21 µM (≈ 9.29 µg/mL)

Structure (SMILES): COc1ccc(/C=C/C(C)=N/Nc2nc(-c3ccc(Cl)cc3)cs2)cc1OC
- MIC [2]: 1.5 to 200 µM (≈ 0.621 to 82.8 µg/mL)

Structure (SMILES): COc1ccc(/C=C/C(C)=N/Nc2nc(-c3ccc(C)cc3)cs2)cc1OC
- MIC [2]: 1.5 to 200 µM (≈ 0.59 to 78.7 µg/mL)

Structure (SMILES): COC(=O)c1nc(N)sc1Cc1ccccc1
- MIC [4]: 0.06 µg/mL (≈ 0.242 µM)

Structure (SMILES): COc1ccc(/C=C/C(C)=N/Nc2nc(-c3ccccc3)cs2)cc1OC
- MIC [2]: 1.5 to 200 µM (≈ 0.569 to 75.9 µg/mL)

Structure (SMILES): COc1ccc(O)c(-c2csc(N/N=C(C)/C=C/c3ccc(OC)c(OC)c3)n2)c1
- pIC50 [2]: 4.64
- MIC [2]: 88 µM (≈ 37.4 µg/mL)

Structure (SMILES): NNC(=O)c1ccncc1 [ISONIAZID]
- pIC50 [5, 13]: < 3.70
- IC90 [5, 13]: > 200 µM
- MIC [5, 13]: > 200 µM
- pIC50 [6]: 6.27
- IC90 [6]: 0.6 µM
- MIC [6]: 0.62 µM (≈ 0.085 µg/mL)

Structure (SMILES): COc1ccc(/C=C/C(C)=N/Nc2nc(-c3ccc([N+](=O)[O-])cc3)cs2)cc1OC
- MIC [2]: > 200 µM

Structure (SMILES): COc1ccc(/C=C/C(C)=N/Nc2nc(-c3ccc(Br)cc3)cs2)cc1OC
- MIC [2]: > 200 µM

Structure (SMILES): COc1ccc(/C=C/C(C)=N/Nc2nc(-c3ccccc3O)cs2)cc1OC
- pIC50 [2]: 4.62
- MIC [2]: 40 µM (≈ 15.8 µg/mL)

Structure (SMILES): COc1ccc(-c2csc(N/N=C(C)/C=C/c3ccc(OC)c(OC)c3)n2)cc1
- MIC [7]: > 200 µM
- MIC (Mycobacterium avium): > 200 µM
- pIC50 [5, 13]: 5.10
- IC90 [5, 13]: > 50 µM
- MIC [5, 13]: 12 µM (≈ 4.91 µg/mL)
- pIC50 (THP-1): 4.30 to 4.96
- pIC50 [2]: 5.08
- MIC [2]: 15 µM (≈ 6.14 µg/mL)
- pIC50 [6]: 5.06
- IC90 [6]: > 50 µM
- MIC [6]: 31 µM (≈ 12.7 µg/mL)

Structure (SMILES): COc1ccc(/C=C/C(C)=N/Nc2nc(-c3c(OC)cccc3OC)cs2)cc1OC
- MIC [7]: > 100 µM
- MIC (Mycobacterium avium): > 100 µM
- pIC50 [5, 13]: 5.25
- IC90 [5, 13]: > 25 µM
- MIC [5, 13]: 19 µM (≈ 8.35 µg/mL)
- pIC50 (THP-1): 4.30 to 4.96
- pIC50 [2]: 5.18
- MIC [2]: 28 µM (≈ 12.3 µg/mL)
- pIC50 [6]: 5.00
- IC90 [6]: > 25 µM
- MIC [6]: 41 µM (≈ 18 µg/mL)

Structure (SMILES): C[C@H]1COc2c(N3CCN(C)CC3)c(F)cc3c(=O)c(C(=O)O)cn1c23.C[C@H]1COc2c(N3CCN(C)CC3)c(F)cc3c(=O)c(C(=O)O)cn1c23.O [LEVOFLOXACIN]
- pIC50 [5, 13]: 6.08
- IC90 [5, 13]: 1.4 µM
- MIC [5, 13]: 1.4 µM
- pIC50 [6]: 6.22
- IC90 [6]: 1.2 µM
- MIC [6]: 1.1 µM

Structure (SMILES): COc1ccc(/C=C/C(C)=N/Nc2nc(-c3ccc(N)cc3)cs2)cc1OC
- MBC [8]: 12 µM (≈ 4.73 µg/mL)
- MIC (Mycobacterium avium): 100 µM (≈ 39.5 µg/mL)
- pIC50 [5, 13]: 6.42
- IC90 [5, 13]: 1.7 µM
- MIC [5, 13]: 1.5 µM (≈ 0.592 µg/mL)
- pIC50 [9]: 7.20
- MIC [9]: 46 µM (≈ 18.1 µg/mL)
- pIC50 [10]: 7.01
- MIC [10]: 0.28 µM (≈ 0.11 µg/mL)
- pIC50 (THP-1): 4.96
- MIC [2]: 1.5 to 200 µM (≈ 0.592 to 78.9 µg/mL)
- pIC50 [11]: > 7.01
- pIC50 [6]: 6.12
- IC90 [6]: 9.2 µM
- MIC [6]: 6.3 µM (≈ 2.49 µg/mL)

Structure (SMILES): COc1ccc(/C=C/C(C)=N/NC(N)=S)cc1OC
- MIC [7]: > 200 µM
- MBC [8]: 6 µM (≈ 1.68 µg/mL)
- MIC (Mycobacterium avium): > 200 µM
- pIC50 [5, 13]: 6.10
- IC90 [5, 13]: 2.9 µM
- MIC [5, 13]: 2.5 µM (≈ 0.698 µg/mL)
- pIC50 [9]: 6.72
- MIC [9]: 29 µM (≈ 8.1 µg/mL)
- pIC50 [10]: 6.82
- MIC [10]: 0.5 µM (≈ 0.14 µg/mL)
- pIC50 (THP-1): 4.30 to 4.96
- pIC50 [2]: 6.01
- MIC [2]: 1.5 to 200 µM (≈ 0.419 to 55.9 µg/mL)
- pIC50 [11]: > 7.01
- pIC50 [6]: 5.92
- IC90 [6]: 5.9 µM
- MIC [6]: 4.8 µM (≈ 1.34 µg/mL)

Structure (SMILES): CC(=O)c1nc(/C=C/c2ccccc2)c2ncn(Cc3ccccc3)c2n1
- MIC [12]: 6.25 µM (≈ 2.22 µg/mL)

Structure (SMILES): COc1ccc(/C=C/C(C)=N/Nc2nc(-c3ccc(OC)c(OC)c3)cs2)cc1OC
- MIC [7]: > 200 µM
- MIC (Mycobacterium avium): > 200 µM
- pIC50 [5, 13]: 5.15
- IC90 [5, 13]: 12 µM
- MIC [5, 13]: 13 µM (≈ 5.71 µg/mL)
- pIC50 (THP-1): 4.42
- pIC50 [2]: 5.13
- MIC [2]: 16 µM (≈ 7.03 µg/mL)
- pIC50 [6]: 4.72
- IC90 [6]: > 200 µM
- MIC [6]: 46 µM (≈ 20.2 µg/mL)

Structure (SMILES): COc1ccc(/C=C/C(C)=N/Nc2nc(-c3ccc(Cl)c(Cl)c3)cs2)cc1OC
- MIC [2]: > 200 µM

Structure (SMILES): COc1ccc(/C=C/C(C)=N/Nc2nc(-c3cccc(C(F)(F)F)c3)cs2)cc1OC
- MIC [2]: > 200 µM

Structure (SMILES): COc1ccc(/C=C/C(C)=N/Nc2nc(-c3cc(F)ccc3O)cs2)cc1OC
- MIC [2]: 1.5 to 200 µM (≈ 0.62 to 82.7 µg/mL)

Structure (SMILES): CO[C@H]1/C=C/O[C@@]2(C)Oc3c(C)c(O)c4c(O)c(c(/C=N/N5CCN(C)CC5)c(O)c4c3C2=O)NC(=O)/C(C)=C\C=C\[C@H](C)[C@H](O)[C@@H](C)[C@@H](O)[C@@H](C)[C@H](OC(C)=O)[C@@H]1C [RIFAMPIN]
- MIC (Mycobacterium avium): 0.1 µM (≈ 0.0823 µg/mL)
- IC90 [5]: 0.012 µM
- pIC50 [5, 13]: 8.33
- MIC [5, 13]: 0.0065 µM (≈ 0.00535 µg/mL)
- MIC [2]: 1.5 to 200 µM (≈ 1.23 to 165 µg/mL)
- pIC50 [6]: < 4.30
- IC90 [6]: > 50 µM
- MIC [6]: > 50 µM
